# Assays:
# [1] = target: T1, NLRP3 (Homo sapiens, UniProt Q96P20); assay: IC50 of NLRP3 inhibitors in reducing IL-1β secretion by THP-1 cells (PMA, LPS, nigericin; ELISA); type: cell-based; conditions: compound + nigericin 1 h
# T1 construct: endogenous in cells; host or cells: THP-1 (human monocyte, PMA-differentiated, LPS-primed, nigericin-stimulated)
# Protocol: Test Example 1 Experiment on Detection of IC50 of NLRP3 Inhibitors in Reducing the Level of IL-1β Secretion by THP-1 Cells
# In this experiment, we use the human monocyte THP-1 to study the inhibitory activity of NLRP3 inhibitor on the secretion of IL-Iβ by cells. Human THP-1 cells are treated with crotonol-12-tetradecanoate-13-acetate (PMA) to differentiate into mature macrophage models. Then, according to the two stages of inflammasome formation in cells (assembly and activation), the cells are stimulated with lipopolysaccharide (LPS) and nigericin in turn, ultimately promoting the extracellular release of IL-1β by THP-1 cells. The first stage of inflammasome formation involves stimulating cells with LPS (lipopolysaccharide), an agonist of the Toll-like receptor TLR4, to activate the expression of the inflammasome-associated proteins NLRP3, caspase 1, and pro-IL-1β, a precursor of IL-1β. The second stage of inflammasome formation involves the addition of the potassium ion carrier nigericin, which causes a series of membrane potential changes in THP-1 cells, destroys the cell membrane structure, causes the efflux of cellular potassium ions, further stimulates the oligomerization of NLRP3 monomers to form NLRP3 oligomers, and begins to recruit ASC and pro-caspase-1 to assemble the NLRP3 inflammasome complex containing a large amount of pro-caspase-1. The pro-caspase-1 on the activated NLRP3 inflammasome is enzymatically self-activated to form a large amount of active caspase-1. The activated caspase-1 further enzymatically promotes the conversion of pro-IL-1β into mature IL-1β that can be secreted.
# (1) Cell suspensions were collected. The cells were centrifuged at 1000 rpm for 4 min, the supernatant was discarded, the cells were resuspended with 1 mL of test medium, and then the cell culture medium was gently pipetted up and down with a pipette and its tip to break up the cell aggregates. After counting the cells, the THP-1 cells were resuspended with complete RPMI medium 1640 containing PMA and seeded into 96-well plates and cultured in a 37° C., 5% CO2 incubator for 72 h.
# (2) The culture medium was taken out from each well with an automatic plate washer dispenser EL406 and each well was rinsed twice with PBS. To each well, 96 μL of RPMI 1640 medium containing LPS was added. The cells were cultured in a 37° C., 5% CO2 incubator for 4 h.
# (3) To each well, 2 μL of the compound and 2 μL of nigericin sodium salt were added, and the final compound concentration selected was 5000 nM, 1000 nM, 200 nM, 40 nM, 8 nM, 1.6 nM, 0.32 nM, 0 nM, respectively. The cells were cultured in a 37° C., 5% CO2 incubator for 1 h.
# (4) An appropriate amount of supernatant was taken out, diluted 100 times, and the content of IL-1β in the supernatant was detected using Human IL-1 beta Valukine ELISA kit.
# [2] = system: MSU-induced acute rat gouty arthritis model; assay: MSU-induced rat acute gouty arthritis model; type: in vivo, SD rats; conditions: FIG. 1
# Protocol: Test Example 3 MSU-Induced Rat Gouty Arthritis Model Evaluation Test
# In this test, male SD rats were used to establish an acute gouty arthritis model by injecting 64 mg/mL sodium urate (MSU) crystal suspension into the right hind ankle joint cavity of the rats. The animals were randomly divided into normal control group, model control group, different dose groups of test compound, 7 rats in each group. The compound group was orally administered with the compound 1 h before and after modeling, and the normal control group and model control group were given an equal amount of vehicle. The foot circumference and foot diameter were measured before and 24 h after modeling.
# [3] = system: IL-1β; assay: Zymosan A-induced rat pericarditis model; type: in vivo, SD rats
# Protocol: Test Example 5 Zymosan A-Induced Rat Pericarditis Model Test
# In this experiment, SD rats were used and 150 μL of a mixture of 50 mg/mL ZymosanA and normal saline was injected into the pericardial cavity to induce a rat pericarditis model and conduct a pharmacodynamic observation experiment. The day of modeling was designated as Day 1. The animals were weighed and randomly divided into groups one day before modeling, namely, G1 normal group, G2 model group, G3 compound 062-10 mg/kg group, G4 compound 062-30 mg/kg group, G5 colchicine-100 μg/kg group, with 7+1* animals in each group (one extra animal was reserved for each group, considering that animals may die during model establishment). After the model was established, oral administration began, once a day, for 7 consecutive days. At the end of the experiment, the animals were euthanized, the muscles were cut open at the third and fourth rib regions to expose the heart, the pericardium was carefully lifted with forceps, and as much pericardial effusion (if any) as possible was extracted with a 1 ml syringe. The pericardial effusion was centrifuged at 5000 rpm at 4° C. for 5 min, and the supernatant was frozen at −80° C. for later detection of IL-1β levels. After the pericardial effusion was collected, the heart was perfused and removed (while ensuring the integrity of the pericardium), fixed with 10% formalin for subsequent pathological examination.
# [4] = system: IL-1β; assay: MSU-induced rat air pouch model, IL-1β in exudate; type: in vivo, SD rats; conditions: FIG. 2
# Protocol: Test Example 4 MSU-Induced Rat Air Pouch Model Test
# Male SD rats were used in this experiment. After an adaptation period, a dorsal air pouch model was established. On the first, fourth and seventh days of the molding, 20 ml of sterile air was injected subcutaneously into the back of the rat with an injection needle to maintain the inflation of the air pouch. On the eighth day, different doses of the compound or vehicle control were administered by oral gavage. 25 mg of sodium urate suspension was injected into the dorsal air pouch, and 5 h later, the air pouch exudate was collected. The exudate was centrifuged at 1500 rpm for 20 min, and the supernatant was collected and the IL-Iβ production was detected by ELISA (R&D, Ra1 IL-1β kit).
# T1 sequence (Q96P20 whole entry): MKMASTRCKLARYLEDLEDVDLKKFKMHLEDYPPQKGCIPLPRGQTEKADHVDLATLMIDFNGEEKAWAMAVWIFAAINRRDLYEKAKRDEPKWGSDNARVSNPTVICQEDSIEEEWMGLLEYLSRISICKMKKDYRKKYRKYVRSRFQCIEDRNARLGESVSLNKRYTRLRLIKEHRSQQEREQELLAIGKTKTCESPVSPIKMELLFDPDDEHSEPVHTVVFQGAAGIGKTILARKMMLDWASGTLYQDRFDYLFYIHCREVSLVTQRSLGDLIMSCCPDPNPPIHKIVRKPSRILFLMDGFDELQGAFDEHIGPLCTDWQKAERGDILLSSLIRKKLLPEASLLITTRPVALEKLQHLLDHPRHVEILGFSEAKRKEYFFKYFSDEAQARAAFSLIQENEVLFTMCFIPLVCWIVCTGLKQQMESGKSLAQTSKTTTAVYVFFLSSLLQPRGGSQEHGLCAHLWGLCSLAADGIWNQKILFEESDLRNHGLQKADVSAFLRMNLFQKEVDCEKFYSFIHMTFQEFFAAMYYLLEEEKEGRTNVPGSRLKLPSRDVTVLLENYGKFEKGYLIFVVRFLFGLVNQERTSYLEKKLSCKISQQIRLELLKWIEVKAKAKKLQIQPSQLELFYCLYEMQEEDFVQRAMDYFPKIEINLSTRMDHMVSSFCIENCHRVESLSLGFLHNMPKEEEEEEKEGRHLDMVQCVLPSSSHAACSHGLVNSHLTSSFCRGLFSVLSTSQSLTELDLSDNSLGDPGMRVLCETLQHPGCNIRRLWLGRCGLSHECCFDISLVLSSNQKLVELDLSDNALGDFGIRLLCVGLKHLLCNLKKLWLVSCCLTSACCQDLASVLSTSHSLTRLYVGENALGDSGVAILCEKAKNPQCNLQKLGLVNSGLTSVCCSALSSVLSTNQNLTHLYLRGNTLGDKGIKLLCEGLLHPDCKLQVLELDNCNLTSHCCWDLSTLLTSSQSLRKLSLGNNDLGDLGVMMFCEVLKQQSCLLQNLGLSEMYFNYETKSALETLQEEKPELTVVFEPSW
compound,measurement,setting,value
"CC#Cc1ccc2c(-c3ccc(Cl)cc3O)nnc(NC[C@H](O)CO)c2c1 [Compound 062, (S)-3-((4-(4-chloro-2-hydroxyphenyl)-7-(prop-1-yn-1-yl)phthalazin-1-yl)amino) propan-1,2-diol]",IC50,[1],9.7 nM
same,effect on ankle joint swelling compared with control compound,[2],significantly better than that of the control compound
same,ankle joint swelling,"[2]; oral, 1 h before and after modeling, 24 h after modeling",dose-dependent improvement in ankle joint swelling
same,degree of pericardial inflammation,"[3]; 10 and 30 mg/kg oral once a day, 7 days, FIG. 3",improved the degree of pericardial inflammation
same,production of IL-1β in the pericardium and pericardial effusion,"[3]; 10 and 30 mg/kg oral once a day, 7 days, FIG. 4",significantly inhibited the production of IL-1β in the pericardium and pericardial effusion
same,effect compared with colchicine,[3]; colchicine 100 μg/kg,comparable to that of colchicine
same,effect on IL-1β compared with colchicine and tofacitinib,[4],better than that of colchicine and tofacitinib
same,production of IL-1β in the air pouch,"[4]; oral gavage, exudate 5 h after MSU",significantly inhibited the production of IL-1β in the air pouch
